The assay concerns BDF1 mice, Adenocarcinoma 755 s.c., tumor weight T/C. The experiment in a line: NCI In Vivo Anticancer Drug Screen. Data for tumor model Adenocarcinoma 755 (subcutaneous) in B6D2F1 (BDF1) mice. The note with it: endpoint: mean tumor weight, higher = larger tumour. The procedure, abridged:
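In vivo antitumor screen on a transplantable tumor line. Result equals the measure in compound-treated animals divided by the same measure in vehicle controls.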

Where [1] appears, read: dose: 30.0 mg/kg/injection, schedule: Q01DX011 (ip), vehicle: methylcellulose (MC).
Setting [2] is: dose: 1.5 mg/kg/injection, schedule: Q01DX011 (ip), vehicle: methylcellulose (MC).
The mark [3] stands for this setting: dose: 15.0 mg/kg/injection, schedule: Q01DX011 (ip), vehicle: saline.

Several values for one entry are separate records, joined by “and”; a condition that tells them apart may be missing. Identical values can stand only once.

Regarding `C[C@@H]1CN(C(=O)CCOS(C)(=O)=O)[C@@H](C)CN1C(=O)CCOS(C)(=O)=O`, the T/C is 95 % of control (dose: 4.0 mg/kg/injection, schedule: Q01DX011 (ip), vehicle: saline); 65 % of control (dose: 8.0 mg/kg/injection, schedule: Q01DX011 (ip), vehicle: saline); 104 % of control (dose: 9.4 mg/kg/injection, schedule: Q01DX011 (ip), vehicle: carboxymethylcellulose (CMC)); 61 % of control (dose: 15.0 mg/kg/injection, schedule: Q01DX011 (ip), vehicle: carboxymethylcellulose (CMC)); 60 % of control (dose: 16.0 mg/kg/injection, schedule: Q01DX011 (ip), vehicle: saline); 32 % of control (dose: 30.0 mg/kg/injection, schedule: Q01DX011 (ip), vehicle: carboxymethylcellulose (CMC)). The T/C (dose: 33.0 mg/kg/injection, schedule: Q01DX011 (ip), vehicle: carboxymethylcellulose (CMC)) is 21 % of control; the T/C (dose: 33.0 mg/kg/injection, schedule: Q01DX011 (ip), vehicle: saline) is 52 % of control; the T/C (dose: 37.5 mg/kg/injection, schedule: Q01DX011 (ip), vehicle: carboxymethylcellulose (CMC)) is 59 % of control and 62 % of control; the T/C (dose: 50.0 mg/kg/injection, schedule: Q01DX011 (ip), vehicle: carboxymethylcellulose (CMC)) is 27 % of control; the T/C (dose: 50.0 mg/kg/injection, schedule: Q01DX011 (ip), vehicle: saline) was 15 % of control; the T/C (dose: 60.0 mg/kg/injection, schedule: Q01DX011 (ip), vehicle: carboxymethylcellulose (CMC)) is 5 % of control. For the same compound, the T/C runs as follows: (dose: 75.0 mg/kg/injection, schedule: Q01DX011 (ip), vehicle: carboxymethylcellulose (CMC)) 9 % of control and 15 % of control and 23 % of control; (dose: 112.5 mg/kg/injection, schedule: Q01DX011 (ip), vehicle: carboxymethylcellulose (CMC)) 10 % of control; (dose: 120.0 mg/kg/injection, schedule: Q01DX011 (ip), vehicle: carboxymethylcellulose (CMC)) 4 % of control.

Take `Nc1nc(SCc2ccccc2)c2ncn(C3CCCCC3)c2n1`: the T/C was 113 % of control (dose: 25.0 mg/kg/injection, schedule: Q01DX011 (ip), vehicle: methylcellulose (MC)); 121 % of control (dose: 75.0 mg/kg/injection, schedule: Q01DX011 (ip), vehicle: methylcellulose (MC)); 210 % of control (dose: 225.0 mg/kg/injection, schedule: Q01DX011 (ip), vehicle: methylcellulose (MC)).

Regarding `CCC(C)SC1=NC=NC2=NC=NC21` (centres undefined), the T/C was 56 % of control (dose: 9.0 mg/kg/injection, schedule: Q01DX011 (ip), vehicle: other); 33 % of control (dose: 13.0 mg/kg/injection, schedule: Q01DX011 (ip), vehicle: other); 6 % of control (dose: 20.0 mg/kg/injection, schedule: Q01DX011 (ip), vehicle: other); 6 % of control (dose: 30.0 mg/kg/injection, schedule: Q01DX011 (ip), vehicle: other).

For `CSc1ncc(C)c(Nc2ccc(Br)cc2)n1`, the T/C (dose: 15.0 mg/kg/injection, schedule: Q01DX011 (ip), vehicle: methylcellulose (MC)) is 111 % of control and the T/C (dose: 31.0 mg/kg/injection, schedule: Q01DX011 (ip), vehicle: methylcellulose (MC)) was 109 % of control.

For `C/C(=N\NC(=O)c1ccncc1)c1ccc(F)cc1`, the T/C under setting [1] was 95 % of control.

On to `CC(=O)[C@@]1(O)CC[C@H]2[C@@H]3C[C@H](C)C4=CC(=O)CC[C@]4(C)[C@H]3[C@@H](O)C[C@@]21C`, for which the T/C is, setting by setting: (dose: 7.0 mg/kg/injection, schedule: Q01DX011 (sc), vehicle: steriod suspending solution) 70 % of control; (dose: 8.0 mg/kg/injection, schedule: Q01DX011 (sc), vehicle: steriod suspending solution) 76 % of control; (dose: 14.0 mg/kg/injection, schedule: Q01DX011 (sc), vehicle: steriod suspending solution) 54 % of control; (dose: 16.0 mg/kg/injection, schedule: Q01DX011 (sc), vehicle: steriod suspending solution) 76 % of control; (dose: 450.0 mg/kg/injection, schedule: Q01DX011 (sc), vehicle: steriod suspending solution) 87 % of control.

Turning to `S=P(N1CC1)(N1CC1)N1CC1`, the T/C is 60 % of control (dose: 0.3 mg/kg/injection, schedule: Q01DX011 (ip), vehicle: carboxymethylcellulose (CMC)); 45 % of control (dose: 0.48 mg/kg/injection, schedule: Q01DX011 (ip), vehicle: carboxymethylcellulose (CMC)); 91 % of control (dose: 0.58 mg/kg/injection, schedule: Q01DX011 (ip), vehicle: carboxymethylcellulose (CMC)); 53 % of control and 62 % of control (2×) (dose: 0.6 mg/kg/injection, schedule: Q01DX011 (ip), vehicle: carboxymethylcellulose (CMC)); 90 % of control (dose: 0.65 mg/kg/injection, schedule: Q01DX011 (ip), vehicle: carboxymethylcellulose (CMC)); 62 % of control (dose: 0.75 mg/kg/injection, schedule: Q01DX011 (ip), vehicle: methylcellulose (MC)). In addition, the T/C is 53 % of control and 77 % of control (dose: 0.8 mg/kg/injection, schedule: Q01DX011 (ip), vehicle: carboxymethylcellulose (CMC)); 54 % of control (dose: 1.3 mg/kg/injection, schedule: Q01DX011 (ip), vehicle: carboxymethylcellulose (CMC)); 89 % of control and 99 % of control (dose: 1.45 mg/kg/injection, schedule: Q01DX011 (ip), vehicle: carboxymethylcellulose (CMC)); 37 % of control under setting [2]; 14 % of control and 29 % of control and 38 % of control (dose: 2.4 mg/kg/injection, schedule: Q01DX011 (ip), vehicle: carboxymethylcellulose (CMC)); 35 % of control (dose: 2.6 mg/kg/injection, schedule: Q01DX011 (ip), vehicle: carboxymethylcellulose (CMC)). Further, the T/C reads like this: (dose: 2.9 mg/kg/injection, schedule: Q01DX011 (ip), vehicle: carboxymethylcellulose (CMC)) 28 % of control and 52 % of control; (dose: 3.0 mg/kg/injection, schedule: Q01DX011 (ip), vehicle: methylcellulose (MC)) 14 % of control; (dose: 5.2 mg/kg/injection, schedule: Q01DX011 (ip), vehicle: carboxymethylcellulose (CMC)) 7 % of control and 9 % of control; (dose: 6.0 mg/kg/injection, schedule: Q01DX011 (ip), vehicle: methylcellulose (MC)) 6 % of control; (dose: 725.0 micrograms/kg/injection, schedule: Q01DX011 (ip), vehicle: carboxymethylcellulose (CMC)) 83 % of control; (dose: 1450.0 micrograms/kg/injection, schedule: Q01DX011 (ip), vehicle: carboxymethylcellulose (CMC)) 30 % of control. The T/C reads like this: (dose: 2900.0 micrograms/kg/injection, schedule: Q01DX011 (ip), vehicle: carboxymethylcellulose (CMC)) 36 % of control; (dose: 5800.0 micrograms/kg/injection, schedule: Q01DX011 (ip), vehicle: carboxymethylcellulose (CMC)) 26 % of control.

As for `C/C(=N\NC(=O)c1ccncc1)c1cccc(Cl)c1`, the T/C was 47 % of control and 50 % of control (dose: 7.5 mg/kg/injection, schedule: Q01DX011 (ip), vehicle: methylcellulose (MC)); 31 % of control under setting [1].

Regarding `CCOC(C)C(/C=N/NC(N)=S)=NNC(N)=S` (centres undefined), the T/C was 49 % of control under setting [3]; 109 % of control (dose: 30.0 mg/kg/injection, schedule: Q01DX011 (ip), vehicle: saline); 117 % of control (dose: 60.0 mg/kg/injection, schedule: Q01DX011 (ip), vehicle: saline); 71 % of control (dose: 120.0 mg/kg/injection, schedule: Q01DX011 (ip), vehicle: saline).

With `O=[N+]([O-])c1cc([N+](=O)[O-])c(NN(c2ccccc2)c2ccccc2)c([N+](=O)[O-])c1`, the T/C (dose: 25.0 mg/kg/injection, schedule: Q01DX011 (ip), vehicle: other) was 86 % of control.

For the compound `CC(=O)[C@H]1CC[C@H]2[C@@H]3CCC4=CC(=O)CC[C@]4(C)[C@H]3CC[C@]12C`, the T/C runs as follows: (dose: 250.0 mg/kg/injection, schedule: Q01DX011 (sc), vehicle: steriod suspending solution) 97 % of control; (dose: 500.0 mg/kg/injection, schedule: Q01DX011 (sc), vehicle: steriod suspending solution) 46 % of control.

Consider `CN(C)N=Nc1ccc(CCC(=O)NN)cc1`, for which the T/C (dose: 10.0 mg/kg/injection, schedule: Q01DX011 (ip), vehicle: saline) is 63 % of control; the T/C under setting [3] is 56 % of control; the T/C (dose: 20.0 mg/kg/injection, schedule: Q01DX011 (ip), vehicle: saline) was 44 % of control; the T/C (dose: 31.0 mg/kg/injection, schedule: Q01DX011 (ip), vehicle: saline) is 40 % of control.

In the case of `Nc1nc(SCc2cccnc2)c2ncn(C3OC(CO)C(O)C3O)c2n1` (centres undefined), the T/C under setting [2] was 92 % of control; the T/C (dose: 3.1 mg/kg/injection, schedule: Q01DX011 (ip), vehicle: methylcellulose (MC)) was 87 % of control; the T/C (dose: 6.2 mg/kg/injection, schedule: Q01DX011 (ip), vehicle: methylcellulose (MC)) is 12 % of control and 15 % of control.

Take `[O-][N+](CCO)(CCO)c1ncnc2nc[nH]c12`: the T/C is, setting by setting: (dose: 25.0 mg/kg/injection, schedule: Q01DX011 (ip), vehicle: saline) 121 % of control; (dose: 75.0 mg/kg/injection, schedule: Q01DX011 (ip), vehicle: saline) 72 % of control; (dose: 225.0 mg/kg/injection, schedule: Q01DX011 (ip), vehicle: saline) 82 % of control.

The term T/C denotes the ratio of treated to control.
